This is an account of results in US20260224589A1 (priority 2023, published 2026).

Like-named read-outs stand apart in the source and are kept apart here.

Experiment [1] deals with SW-620. Briefly: phospho-ERK HTRF assay in SW-620 cells, 4 h treatment. The class given is cell-based. To be noted: Homo sapiens, Table 3, read-out: pERK Inhibition SW-620 IC50.
Experiment [2] deals with AsPC-1 cells. Briefly: phospho-ERK HTRF assay in AsPC-1 cells, 4 h treatment. In kind it is cell-based. To be noted: Homo sapiens, ASPC1.
The mark [3] stands for this setting: AsPC-1, 4h, Table 1b, read-out: PERK IC50 (AsPC-1, 4h).
Where [4] appears, read: AsPC-1, 4H, Table 1a class column, read-out: pERK IC50 activity range (*).
The mark [5] stands for this setting: AsPC-1, 4H, Table 1a, read-out: PERK IC50 (AsPC-1, 4H).

Consider `CN(C)C(=O)c1nn2c(c1Cl)CN(c1nc(OC[C@@]34CCCN3C[C@H](F)C4)nc3c1CO[C@H](c1c(C(F)(F)F)ccc(N)c1F)C3)CCC2` (single isomer, unassigned) [Example 1], for which the IC50 in experiment [1] was found to be 14.4 nM; in experiment [2] (Table 3, read-out: pERK Inhibition AsPC-1 IC50), 12.8 nM.
In the case of `Cc1cc(N)cc(C2Cc3nc(OC[C@@]45CCCN4C/C(=C\F)C5)nc(N4CCCn5nc(C(=O)N(C)C)c(Cl)c5C4)c3CO2)c1C(F)(F)F` (stereo partly shown) [compound 240], the IC50 in experiment [2] (setting [3]) is < 10 nM.
As to `CS(=O)(=O)c1nn2c(c1Cl)CN(c1nc(OC[C@@]34CCCN3C[C@H](F)C4)nc3c1CO[C@@H](c1c(C(F)(F)F)ccc(N)c1F)C3)CCC2` [211b], the IC50 was > 500 nM in experiment [2] (setting [4]) and > 10000 nM in experiment [2] (setting [5]).
On to `Nc1ccc(C(F)(F)F)c(C2Cc3nc(OC[C@@]45CCCN4C[C@H](F)C5)nc(N4CCNCC(=O)C4)c3CO2)c1F` (stereo partly shown) [compound 203], for which the results for the IC50 in experiment [2] (setting [4]) and in experiment [2] (setting [5]) were > 500 nM and > 10000 nM, respectively.
`CN(C)C(=O)c1nn2c(c1Cl)CN(c1nc(OC[C@]34CCCN3C[C@@H](C=C(F)F)C4)nc3c1CO[C@H](c1c(F)c(N)cc(Cl)c1C(F)(F)F)C3)CCC2` [compound 459]: in experiment [2] (setting [3]), the IC50 is < 10 nM.
`Cc1cc(N)cc([C@@H]2Cc3nc(OC[C@@]45CCCN4C/C(=C\F)C5)nc(N4CCCn5nc(C(=O)N(C)C)c(C)c5C4)c3CO2)c1C(F)(F)F` [compound 415]: in experiment [2] (setting [3]), the 50% inhibitory concentration (IC50) was < 10 nM.
Regarding `CN(C)C(=O)c1nn2c(c1Cl)CN(c1nc(OC[C@@]34CCCN3C/C(=C\F)C4)nc3c1COC(c1c(C(F)(F)F)ccc(N)c1F)C3)CCC2` (stereo partly drawn) [compound 233, 5-(7-(3-amino-2-fluoro-6-(trifluoromethyl)phenyl)-2-(((S,Z)-2-(fluoromethylene)tetrahydro-1H-pyrrolizin-7a(5H)-yl)methoxy)-7,8-dihydro-5H-pyrano[4,3-d]pyrimidin-4-yl)-3-chloro-N,N-dimethyl-5,6,7,8-tetrahydro-4H-pyrazolo[1,5-a][1,4]diazepine-2-carboxamide], the IC50 in experiment [2] (setting [4]) was 10 to 30 nM; in experiment [2] (setting [5]), 30 nM.
The corresponding values for `CN(C)C(=O)c1nn2c(c1Cl)CN(c1nc(OC[C@@]34CCCN3C[C@H](F)C4)nc3c1COC(c1cc(N)cc(F)c1C(F)(F)F)C3)CCC2` (stereo partly shown) [compound 237] are 10 to 30 nM and 20.4 nM.
Consider `CN(C)C(=O)c1nn2c(c1Cl)CN(c1nc(OC[C@@]34CCCN3CC(=C(F)F)C4)nc3c1CO[C@H](c1cc(N)ccc1C(F)(F)F)C3)CCC2` [compound 244], for which the IC50 is 10 to 30 nM in experiment [2] (setting [4]) and 22.2 nM in experiment [2] (setting [5]).
For `Cc1c(C(=O)N(C)C)nn2c1CN(c1nc(OC[C@]34CCCN3C[C@@H](C=C(F)F)C4)nc3c1CO[C@H](c1cc(N)cc(Cl)c1C(F)(F)F)C3)CCC2` [compound 447], the IC50 in experiment [2] (setting [3]) is < 10 nM.
Take `CN(C)C(=O)c1nn2c(c1Br)CN(c1nc(OC[C@@]34CCCN3C[C@H](F)C4)nc3c1CO[C@H](c1c(C(F)(F)F)ccc(N)c1F)C3)CCC2` [compound 224]: the IC50 in experiment [2] (setting [4]) was 10 to 30 nM; in experiment [2] (setting [5]), 22 nM.
As for `Cc1c(C(=O)N(C)C)nn2c1CN(c1nc(OC[C@@]34CCCN3C/C(=C\F)C4)nc3c1CO[C@H](c1cc(N)cc(F)c1C(F)(F)F)C3)CCC2` [compound 417], in experiment [2] (setting [3]), the IC50 is < 10 nM.
The same measure, in the same setting: to `CN(C)C(=O)c1nn2c(c1Cl)CN(c1nc(OC[C@@]34CCCN3C/C(=C\F)C4)nc3c1CO[C@H](c1cc(N)cc(Cl)c1C(F)(F)F)C3)CCC2` [compound 235, 5-((S)-7-(5-amino-3-chloro-2-(trifluoromethyl)phenyl)-2-(((S,Z)-2-(fluoromethylene)tetrahydro-1H-pyrrolizin-7a(5H)-yl)methoxy)-7,8-dihydro-5H-pyrano[4,3-d]pyrimidin-4-yl)-3-chloro-N,N-dimethyl-5,6,7,8-tetrahydro-4H-pyrazolo[1,5-a][1,4]diazepine-2-carboxamide] belongs < 10 nM; to `CN(C)C(=O)c1nn2c(c1Cl)CN(c1nc(OC[C@@]34CCCN3C/C(=C\F)C4)nc3c1COC(c1cc(N)cc(Cl)c1C(F)(F)F)C3)CCC2` (stereo partly shown) [compound 242], < 10 nM.
Consider `CON(C)C(=O)c1nn2c(c1Cl)CN(c1nc(OC[C@@]34CCCN3C[C@H](F)C4)nc3c1COC(c1c(F)c(N)cc(C)c1C(F)(F)F)C3)CCC2` (stereo partly drawn) [compound 464, 5-(2-{[(2R,7aS)-2-fluoro-hexahydropyrrolizin-7a-yl]methoxy}-7-[3-amino-2-fluoro-5-methyl-6-(trifluoromethyl)phenyl]-5H,7H,8H-pyrano[4,3-d]pyrimidin-4-yl)-3-chloro-N-methoxy-N-methyl-4H,6H,7H,8H-pyrazolo[1,5-a][1,4]diazepine-2-carboxamide], for which the IC50 in experiment [2] (setting [4]) was in the range of 10 to 30 nM.
With `CN(C)C(=O)n1nc2c(c1Cl)CN(c1nc(OC[C@@]34CCCN3C[C@H](F)C4)nc3c1COC(c1c(C(F)(F)F)ccc(N)c1F)C3)CCC2` (stereo partly shown) [compound 226], the results for the IC50 in experiment [2] (setting [4]) and in experiment [2] (setting [5]) were > 500 nM and 943 nM, respectively.
Regarding `Cc1c(C(=O)N(C)C)nn2c1CN(c1nc(OC[C@]34CCCN3C[C@@H](C=C(F)F)C4)nc3c1CO[C@H](c1c(F)c(N)cc(Cl)c1C(F)(F)F)C3)CCC2` [compound 458], the IC50 in experiment [2] (setting [3]) was < 10 nM.
For the molecule `CN(C)C(=N)c1nn2c(c1Cl)CN(c1nc(OC[C@@]34CCCN3C[C@H](F)C4)nc3c1CO[C@H](c1c(C(F)(F)F)ccc(N)c1F)C3)CCC2` [compound 221], the IC50 was > 500 nM in experiment [2] (setting [4]) and > 10000 nM in experiment [2] (setting [5]).
`CCN(C)C(=O)c1cc2n(n1)CCCN(c1nc(OC[C@@]34CCCN3C/C(=C\F)C4)nc3c1CO[C@H](c1cc(N)cc(C)c1C(F)(F)F)C3)C2` [compound 413]: the IC50 in experiment [2] (setting [3]) is < 10 nM.

What is called IC50 is the point on the concentration scale where inhibition reaches its midpoint.
